Measured values as given in patent US9072698B2, “Method for screening anti-cancer compounds inhibiting function of TM4SF5 and anti-cancer composition containing chalcone compounds” (Seoul National University Industry Foundation, priority 2006, dated 2015).
Converted amounts (≈) assume the structure as drawn.

Legend:
Format in all cases: cell-based
[1] = system: HCT15 (colon adenocarcinoma); experiment: In vitro cytotoxicity, sulforhodamine B (SRB) method, HCT15; settings: Homo sapiens; HCT-15, SRB method; read-out: cytotoxicity (ED50) HCT-15
Method: (§1) The chalcone derivatives of the present invention were evaluated for in vitro cytotoxicity against human carcinoma cell lines using a sulforhodamine B (SRB) method, which was developed in 1989 by the National Cancer Institute (NCI), USA.
(§2) HCT15 (colon adenocarcinoma; ATCC CCL-225), PC-3 (prostate adenocarcinoma; ATCC CRL-1435), and A-549 (lung carcinoma; ATCC CCL-185) cell lines were used. All of these carcinoma cells were sub-cultured at the Korean Research Institute of Bioscience and Biotechnology (KRIBB), Korea.
(§3) The human carcinoma cell lines were cultured in 10% FCS-containing RPMI 1640 medium (Gibco Cat. No. 31800) in an incubator at 37° C. under 5% CO2, and sub-cultured twice per week.
(§4) Cells were detached from the attached surface using 0.25% Trypsin (Sigma) and 3 mM CDTA (1,2-cyclohexane diamine tetraacetic acid, Sigma) in phosphate buffered saline (PBS, Sigma).
(§5) Compounds to be tested (the chalcone derivatives set forth in Table 1) were dissolved in a small amount of dimethylsulfoxide (DMSO, Sigma), and diluted in culture medium to a desired concentration. The final concentration of DMSO was less than 0.5%. The diluted compounds (final concentration: 30, 10, 3, 1 and 0.3 μg/ml) were sterilized through a 0.22-μm microfilter (Millipore). The cytotoxicity of the compounds to human carcinoma cell lines was assessed using a typical SRB method.

[2] = system: PC-3 (prostate adenocarcinoma); experiment: In vitro cytotoxicity, sulforhodamine B (SRB) method, PC-3; settings: Homo sapiens; PC-3, SRB method; read-out: cytotoxicity (ED50) PC-3
Method: as §1, §2, §3, §4, §5

[3] = system: A-549 (lung carcinoma); experiment: In vitro cytotoxicity, sulforhodamine B (SRB) method, A-549; settings: Homo sapiens, A549; A-549, SRB method; read-out: cytotoxicity (ED50) A-549
Method: as §1, §2, §3, §4, §5

Row | Compound | IC50 [1] | IC50 [2] | IC50 [3]
1 | O=C(/C=C/c1ccc(O)cc1)c1ccc(NS(=O)(=O)c2ccc(F)cc2)cc1 [Compound 24, 4′-(p-fluorobenzensulfonylamino)-4-hydroxychalcone] | 55 µg/mL (≈ 138 µM) | 51 µg/mL (≈ 128 µM) | 50 µg/mL (≈ 126 µM)
2 | Nc1ccc(S(=O)(=O)Nc2ccc(C(=O)/C=C/c3ccc(O)cc3)cc2)cc1 [Compound 30, 4′-(p-aminobenzensulfonylamino)-4-hydroxychalcone] | 52 µg/mL (≈ 132 µM) | 59 µg/mL (≈ 150 µM) | 50 µg/mL (≈ 127 µM)
3 | O=C(/C=C/c1ccc(O)cc1)c1cccc(NS(=O)(=O)c2ccc(O)cc2)c1 [Compound 9, 3′-(p-hydroxybenzenesulfonylamino)-4-hydroxychalcone] | 24 µg/mL (≈ 60.7 µM) | 31 µg/mL (≈ 78.4 µM) | 40 µg/mL (≈ 101 µM)
4 | Nc1ccccc1S(=O)(=O)Nc1ccc(C(=O)/C=C/c2ccc(O)cc2)cc1 [Compound 32, 4′-(o-aminobenzensulfonylamino)-4-hydroxychalcone] | 47 µg/mL (≈ 119 µM) | 41 µg/mL (≈ 104 µM) | 45 µg/mL (≈ 114 µM)
5 | Nc1cccc(S(=O)(=O)Nc2ccc(C(=O)/C=C/c3ccc(O)c(O)c3)cc2)c1 [Compound 79, 4′-(m-aminobenzensulfonylamino)-3,4-dihydroxychalcone] | 7 µg/mL (≈ 17.1 µM) | 15 µg/mL (≈ 36.5 µM) | 8 µg/mL (≈ 19.5 µM)
6 | O=C(/C=C/c1ccc(O)c(O)c1)c1cccc(NS(=O)(=O)c2cccc(O)c2)c1 [Compound 64, 3′-(m-hydroxybenzenesulfonylamino)-3,4-dihydroxychalcone] | 4 µg/mL (≈ 9.72 µM) | 7 µg/mL (≈ 17 µM) | 3 µg/mL (≈ 7.29 µM)
7 | O=C(/C=C/c1cccc(O)c1O)c1cccc(NS(=O)(=O)c2cccc(O)c2)c1 [Compound 65, 3′-(m-hydroxybenzenesulfonylamino)-2,3-dihydroxychalcone] | 9 µg/mL (≈ 21.9 µM) | 13 µg/mL (≈ 31.6 µM) | 4 µg/mL (≈ 9.72 µM)
8 | CS(=O)(=O)Oc1ccc(C(=O)/C=C/c2ccc(O)cc2)cc1 [Compound 41, 4′-(methanesulfonate)-4-hydroxychalcone] | 42 µg/mL | 48 µg/mL | 49 µg/mL
9 | O=C(/C=C/c1ccc(O)c(O)c1)c1ccc(NS(=O)(=O)c2cccc(O)c2)cc1 [Compound 60, 4′-(m-hydroxybenzenesulfonylamino)-3,4-dihydroxychalcone] | 4 µg/mL (≈ 9.72 µM) | 8 µg/mL (≈ 19.4 µM) | 7 µg/mL (≈ 17 µM)
10 | O=C(/C=C/c1ccc(O)c(O)c1)c1ccc(OS(=O)(=O)c2cccc(O)c2)cc1 [Compound 94, 4′-(m-hydroxybenzenesulfonate)-3,4-dihydroxychalcone] | 7 µg/mL (≈ 17 µM) | 16 µg/mL (≈ 38.8 µM) | 11 µg/mL (≈ 26.7 µM)
11 | O=C(/C=C/c1ccc(O)c(O)c1)c1ccc(NS(=O)(=O)c2ccc(F)cc2)cc1 [Compound 72, 4′-(p-fluorobenzensulfonylamino)-3,4-dihydroxychalcone] | 10 µg/mL (≈ 24.2 µM) | 8 µg/mL (≈ 19.4 µM) | 11 µg/mL (≈ 26.6 µM)
12 | O=C(/C=C/c1cc(O)ccc1O)c1cccc(NS(=O)(=O)c2cccc(O)c2)c1 [Compound 67, 3′-(m-hydroxybenzenesulfonylamino)-2,5-dihydroxychalcone] | 7 µg/mL (≈ 17 µM) | 15 µg/mL (≈ 36.5 µM) | 14 µg/mL (≈ 34 µM)
13 | O=C(/C=C/c1ccc(O)cc1O)c1ccc(NS(=O)(=O)c2ccc(O)cc2)cc1 [Compound 50, 4′-(p-hydroxybenzenesulfonylamino)-2,4-dihydroxychalcone] | 9 µg/mL (≈ 21.9 µM) | 9 µg/mL (≈ 21.9 µM) | 10 µg/mL (≈ 24.3 µM)
14 | O=C(/C=C/c1ccc(O)cc1)c1ccc(NS(=O)(=O)c2ccc(O)cc2)cc1 [Compound 6, 4′-(p-hydroxybenzenesulfonylamino)-4-hydroxychalcone] | 37 µg/mL (≈ 93.6 µM) | 33 µg/mL (≈ 83.5 µM) | 41 µg/mL (≈ 104 µM)
15 | Cc1ccc(S(=O)(=O)Nc2ccc(C(=O)/C=C/c3cccc(O)c3O)cc2)cc1 [Compound 43, 4′-(p-toluenesulfonylamino)-2,3-dihydroxychalcone] | 12 µg/mL (≈ 29.3 µM) | 14 µg/mL (≈ 34.2 µM) | 18 µg/mL (≈ 44 µM)
16 | Cc1ccc(S(=O)(=O)Nc2ccc(C(=O)/C=C/c3cc(O)ccc3O)cc2)cc1 [Compound 45, 4′-(p-toluenesulfonylamino)-2,5-dihydroxychalcone] | 11 µg/mL (≈ 26.9 µM) | 14 µg/mL (≈ 34.2 µM) | 12 µg/mL (≈ 29.3 µM)
17 | O=C(/C=C/c1cccc(O)c1O)c1ccccc1NS(=O)(=O)c1cccc(O)c1 [Compound 69, 2′-(m-hydroxybenzenesulfonylamino)-2,3-dihydroxychalcone] | 7 µg/mL (≈ 17 µM) | 16 µg/mL (≈ 38.9 µM) | 8 µg/mL (≈ 19.4 µM)
18 | O=C(/C=C/c1ccccc1O)c1ccccc1NS(=O)(=O)c1ccc(O)cc1 [Compound 14, 2′-(p-hydroxybenzenesulfonylamino)-2-hydroxychalcone] | 38 µg/mL (≈ 96.1 µM) | 29 µg/mL (≈ 73.3 µM) | 31 µg/mL (≈ 78.4 µM)

Row | Compound | IC50 [1] | IC50 [2] | IC50 [3]
19 | O=C(/C=C/c1cc(O)ccc1O)c1ccc(NS(=O)(=O)c2cccc(O)c2)cc1 [Compound 63, 4′-(m-hydroxybenzenesulfonylamino)-2,5-dihydroxychalcone] | 8 µg/mL (≈ 19.4 µM) | 14 µg/mL (≈ 34 µM) | 10 µg/mL (≈ 24.3 µM)
20 | CS(=O)(=O)Nc1ccc(C(=O)/C=C/c2ccc(O)cc2)cc1 [Compound 34, 4′-(methanesulfonylamino)-4-hydroxychalcone] | 54 µg/mL (≈ 170 µM) | 64 µg/mL (≈ 202 µM) | 74 µg/mL (≈ 233 µM)
21 | O=C(/C=C/c1ccc(O)c(O)c1)c1ccc(NS(=O)(=O)c2ccc([N+](=O)[O-])cc2)cc1 [Compound 75, 4′-(p-nitrobenzensulfonylamino)-3,4-dihydroxychalcone] | 8 µg/mL (≈ 18.2 µM) | 15 µg/mL (≈ 34.1 µM) | 14 µg/mL (≈ 31.8 µM)
22 | O=C(/C=C/c1cccc(O)c1)c1ccccc1NS(=O)(=O)c1cccc(O)c1 [Compound 22, 2′-(m-hydroxybenzenesulfonylamino)-3-hydroxychalcone] | 28 µg/mL (≈ 70.8 µM) | 45 µg/mL (≈ 114 µM) | 27 µg/mL (≈ 68.3 µM)
23 | O=C(/C=C/c1ccccc1O)c1cccc(NS(=O)(=O)c2cccc(O)c2)c1 [Compound 20, 3′-(m-hydroxybenzenesulfonylamino)-2-hydroxychalcone] | 40 µg/mL (≈ 101 µM) | 39 µg/mL (≈ 98.6 µM) | 35 µg/mL (≈ 88.5 µM)
24 | O=C(/C=C/c1cc(O)ccc1O)c1ccc(OS(=O)(=O)c2cccc(O)c2)cc1 [Compound 97, 4′-(m-hydroxybenzenesulfonate)-2,5-dihydroxychalcone] | 11 µg/mL (≈ 26.7 µM) | 8 µg/mL (≈ 19.4 µM) | 6 µg/mL (≈ 14.5 µM)
25 | O=C(/C=C/c1ccc(O)cc1)c1ccccc1NS(=O)(=O)c1ccc(O)cc1 [Compound 12, 2′-(p-hydroxybenzenesulfonylamino)-4-hydroxychalcone] | 37 µg/mL (≈ 93.6 µM) | 37 µg/mL (≈ 93.6 µM) | 35 µg/mL (≈ 88.5 µM)
26 | O=C(/C=C/c1ccc(O)cc1O)c1ccc(OS(=O)(=O)c2ccc(O)cc2)cc1 [Compound 92, 4′-(p-hydroxybenzenesulfonate)-2,4-dihydroxychalcone] | 8 µg/mL (≈ 19.4 µM) | 7 µg/mL (≈ 17 µM) | 9 µg/mL (≈ 21.8 µM)
27 | O=C(/C=C/c1ccc(O)cc1)c1ccc(OS(=O)(=O)c2cccc(O)c2)cc1 [Compound 87, 4′-(m-hydroxybenzenesulfonate)-4-hydroxychalcone] | 19 µg/mL (≈ 47.9 µM) | 21 µg/mL (≈ 53 µM) | 20 µg/mL (≈ 50.5 µM)
28 | O=C(/C=C/c1ccc(O)cc1)c1ccc(NS(=O)(=O)c2ccccc2[N+](=O)[O-])cc1 [Compound 29, 4′-(o-nitrobenzensulfonylamino)-4-hydroxychalcone] | 29 µg/mL (≈ 68.3 µM) | 21 µg/mL (≈ 49.5 µM) | 37 µg/mL (≈ 87.2 µM)
29 | O=C(/C=C/c1ccc(O)cc1)c1ccc(NS(=O)(=O)c2cccc([N+](=O)[O-])c2)cc1 [Compound 28, 4′-(m-nitrobenzensulfonylamino)-4-hydroxychalcone] | 54 µg/mL (≈ 127 µM) | 57 µg/mL (≈ 134 µM) | 59 µg/mL (≈ 139 µM)
30 | Cc1ccc(S(=O)(=O)Nc2ccc(C(=O)/C=C/c3cccc(O)c3)cc2)cc1 [Compound 2, 4′-(p-toluenesulfonylamino)-3-hydroxychalcone] | 37 µg/mL (≈ 94 µM) | 39 µg/mL (≈ 99.1 µM) | 36 µg/mL (≈ 91.5 µM)
31 | O=C(/C=C/c1ccc(O)cc1)c1ccc(NS(=O)(=O)c2ccccc2F)cc1 [Compound 26, 4′-(o-fluorobenzensulfonylamino)-4-hydroxychalcone] | 22 µg/mL (≈ 55.4 µM) | 28 µg/mL (≈ 70.5 µM) | 20 µg/mL (≈ 50.3 µM)
32 | O=C(/C=C/c1ccc(O)c(O)c1)c1ccc(NS(=O)(=O)c2cccc([N+](=O)[O-])c2)cc1 [Compound 76, 4′-(m-nitrobenzensulfonylamino)-3,4-dihydroxychalcone] | 12 µg/mL (≈ 27.2 µM) | 17 µg/mL (≈ 38.6 µM) | 11 µg/mL (≈ 25 µM)
33 | O=C(/C=C/c1ccc(O)cc1O)c1ccc(NS(=O)(=O)c2cccc(O)c2)cc1 [Compound 62, 4′-(m-hydroxybenzenesulfonylamino)-2,4-dihydroxychalcone] | 7 µg/mL (≈ 17 µM) | 8 µg/mL (≈ 19.4 µM) | 12 µg/mL (≈ 29.2 µM)
34 | Cc1ccc(S(=O)(=O)Nc2cccc(C(=O)/C=C/c3ccc(O)c(O)c3)c2)cc1 [Compound 46, 3′-(p-toluenesulfonylamino)-3,4-dihydroxychalcone] | 9 µg/mL (≈ 22 µM) | 8 µg/mL (≈ 19.5 µM) | 13 µg/mL (≈ 31.7 µM)
35 | O=C(/C=C/c1ccc(O)cc1)c1ccc(NS(=O)(=O)c2cccc(F)c2)cc1 [Compound 25, 4′-(m-fluorobenzensulfonylamino)-4-hydroxychalcone] | 54 µg/mL (≈ 136 µM) | 57 µg/mL (≈ 143 µM) | 51 µg/mL (≈ 128 µM)
